From ChEMBL document CHEMBL6127091, “Design, synthesis, and evaluation of chalcone derivatives as xanthine oxidase inhibitors” (Eur J Med Chem, 2024)
Active and inactive are the calls of the source. The calls are words filed in the database; no cut-off is given here.

Key:
[1] = target: T1, Xanthine dehydrogenase/oxidase (Homo sapiens, UniProt P47989); experiment: Inhibition of xanthine oxidase (unknown origin) using xanthine as substrate preincubated for 20 mins followed by substrate addition measured for 5 mins by absorbance based analysis
T1 sequence (P47989 whole entry): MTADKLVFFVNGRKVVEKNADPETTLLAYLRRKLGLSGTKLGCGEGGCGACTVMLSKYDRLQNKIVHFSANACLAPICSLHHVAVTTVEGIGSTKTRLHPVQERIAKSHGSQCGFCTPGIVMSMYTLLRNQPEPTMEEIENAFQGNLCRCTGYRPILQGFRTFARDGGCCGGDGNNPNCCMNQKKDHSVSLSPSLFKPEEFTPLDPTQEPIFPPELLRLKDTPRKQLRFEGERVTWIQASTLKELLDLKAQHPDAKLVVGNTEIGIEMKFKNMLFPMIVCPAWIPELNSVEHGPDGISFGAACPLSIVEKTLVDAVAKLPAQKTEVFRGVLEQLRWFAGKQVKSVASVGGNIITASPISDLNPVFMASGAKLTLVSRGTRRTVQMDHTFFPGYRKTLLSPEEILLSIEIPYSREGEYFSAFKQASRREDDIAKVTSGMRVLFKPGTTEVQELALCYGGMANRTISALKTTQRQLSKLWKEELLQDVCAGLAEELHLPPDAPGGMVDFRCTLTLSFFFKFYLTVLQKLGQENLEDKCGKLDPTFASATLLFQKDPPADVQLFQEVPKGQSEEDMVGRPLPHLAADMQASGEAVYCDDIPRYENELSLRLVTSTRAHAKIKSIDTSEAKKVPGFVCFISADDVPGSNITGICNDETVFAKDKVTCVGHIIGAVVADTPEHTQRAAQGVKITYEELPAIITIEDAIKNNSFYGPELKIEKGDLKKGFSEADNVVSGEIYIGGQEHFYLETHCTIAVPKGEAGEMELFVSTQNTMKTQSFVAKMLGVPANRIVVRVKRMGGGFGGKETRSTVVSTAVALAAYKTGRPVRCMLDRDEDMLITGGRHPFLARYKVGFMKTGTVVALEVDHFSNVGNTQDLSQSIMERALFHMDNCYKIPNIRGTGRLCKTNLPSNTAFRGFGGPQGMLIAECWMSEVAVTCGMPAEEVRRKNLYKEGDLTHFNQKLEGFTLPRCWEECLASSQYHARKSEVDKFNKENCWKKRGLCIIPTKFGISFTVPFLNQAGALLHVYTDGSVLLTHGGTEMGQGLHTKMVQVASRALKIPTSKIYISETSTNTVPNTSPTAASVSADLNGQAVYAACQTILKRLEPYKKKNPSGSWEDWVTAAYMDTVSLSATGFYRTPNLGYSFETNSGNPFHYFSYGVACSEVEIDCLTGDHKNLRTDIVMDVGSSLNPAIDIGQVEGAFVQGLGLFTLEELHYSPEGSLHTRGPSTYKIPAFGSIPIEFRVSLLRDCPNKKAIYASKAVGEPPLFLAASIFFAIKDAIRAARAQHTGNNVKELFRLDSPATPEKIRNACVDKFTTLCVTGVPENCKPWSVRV

[2] = target: T1, Xanthine dehydrogenase/oxidase; experiment: Reversible inhibition of xanthine oxidase (unknown origin) using xanthine as substrate by absorbance based analysis
[3] = target: Xanthine dehydrogenase/oxidase (Bos taurus, UniProt P80457); experiment: Inhibition of bovine milk xanthine oxidase using xanthine as substrate preincubated for 30 mins followed by substrate addition by absorbance based analysis
Chain of Xanthine dehydrogenase/oxidase (Bos taurus, UniProt P80457) (P80457 whole entry): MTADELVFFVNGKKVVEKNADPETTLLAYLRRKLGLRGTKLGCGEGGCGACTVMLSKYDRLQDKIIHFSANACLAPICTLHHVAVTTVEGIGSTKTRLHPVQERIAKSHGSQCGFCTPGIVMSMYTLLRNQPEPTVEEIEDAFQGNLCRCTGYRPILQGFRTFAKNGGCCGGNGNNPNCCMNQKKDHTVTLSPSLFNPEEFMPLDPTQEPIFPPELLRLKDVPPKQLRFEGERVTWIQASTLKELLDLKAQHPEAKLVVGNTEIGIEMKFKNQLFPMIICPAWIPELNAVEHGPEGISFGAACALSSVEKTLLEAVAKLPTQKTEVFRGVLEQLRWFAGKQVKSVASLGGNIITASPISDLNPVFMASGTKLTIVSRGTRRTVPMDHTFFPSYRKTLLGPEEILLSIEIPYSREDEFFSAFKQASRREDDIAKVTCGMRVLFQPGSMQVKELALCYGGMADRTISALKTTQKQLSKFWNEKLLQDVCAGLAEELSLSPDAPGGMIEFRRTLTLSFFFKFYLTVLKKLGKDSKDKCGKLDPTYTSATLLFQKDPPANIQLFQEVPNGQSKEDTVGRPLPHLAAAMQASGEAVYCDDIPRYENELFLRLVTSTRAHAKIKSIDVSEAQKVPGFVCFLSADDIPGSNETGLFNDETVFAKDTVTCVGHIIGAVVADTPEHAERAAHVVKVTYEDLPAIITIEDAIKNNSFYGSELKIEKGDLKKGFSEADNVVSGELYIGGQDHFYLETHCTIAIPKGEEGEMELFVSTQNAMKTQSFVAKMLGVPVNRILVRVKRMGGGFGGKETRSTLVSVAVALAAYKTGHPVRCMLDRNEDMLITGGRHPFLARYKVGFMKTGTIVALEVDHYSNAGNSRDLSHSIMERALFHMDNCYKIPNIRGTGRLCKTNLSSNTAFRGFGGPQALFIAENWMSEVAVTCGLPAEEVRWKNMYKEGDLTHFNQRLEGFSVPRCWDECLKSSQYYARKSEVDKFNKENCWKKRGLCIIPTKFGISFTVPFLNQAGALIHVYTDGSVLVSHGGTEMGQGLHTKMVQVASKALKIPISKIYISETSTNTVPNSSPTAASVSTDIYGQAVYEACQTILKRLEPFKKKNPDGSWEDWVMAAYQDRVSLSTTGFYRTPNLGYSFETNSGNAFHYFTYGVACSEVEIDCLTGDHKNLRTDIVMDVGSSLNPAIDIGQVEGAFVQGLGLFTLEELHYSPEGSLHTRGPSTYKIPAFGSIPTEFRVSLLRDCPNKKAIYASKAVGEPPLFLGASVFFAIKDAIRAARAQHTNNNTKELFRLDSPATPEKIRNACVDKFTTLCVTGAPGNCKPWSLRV

[4] = target: T1, Xanthine dehydrogenase/oxidase; experiment: Mixed-type inhibition of xanthine oxidase (unknown origin) using xanthine as substrate by absorbance based analysis
AML12 = experiment: Cytotoxicity in mouse AML12 cells at 1 to 20 uM incubated for 24 hrs by MTT assay; type: toxicity, cell-based; settings: aml12, 24 h, dose 1-20 µM
[5] = target: T1, Xanthine dehydrogenase/oxidase; experiment: Inhibition of xanthine oxidase (unknown origin)
Rattus norvegicus [6] = experiment: Anti-hyperuricemia effect in PO-induced hyperuricemia Sprague-Dawley rat model assessed as decrease in serum uric acid level at 10 mg/kg, po measured after 2 hrs; type: functional, organism-based
[7] = Effect on serum creatinine level in PO-induced hyperuricemia Sprague-Dawley rat model at 10 mg/kg, po measure upto 8 hrs; type: toxicity, organism-based; settings: in vivo
[8] = Effect on serum AST/ALT ratio in PO-induced hyperuricemia Sprague-Dawley rat model at 10 mg/kg, po measure upto 8 hrs; type: toxicity, organism-based; settings: in vivo
[9] = Cytotoxicity in mouse AML12 cells assessed as cell viability at 20 uM incubated for 24 hrs by MTT assay relative to control; type: toxicity, cell-based; settings: read-out: Activity
[10] = Cytotoxicity in mouse AML12 cells assessed as cell viability at 1 to 10 uM incubated for 24 hrs by MTT assay relative to control; type: toxicity, cell-based; settings: dose 1-10 µM, read-out: Activity
[11] = Effect on serum AST/ALT ratio in PO-induced hyperuricemia Sprague-Dawley rat model at 10 to 40 mg/kg, po measure upto 8 hrs; type: toxicity, organism-based; settings: in vivo, dose 10-40 mg/kg
Rattus norvegicus [12] = experiment: Anti-hyperuricemia effect in PO-induced hyperuricemia Sprague-Dawley rat model assessed as decrease in serum uric acid level at 10 to 40 mg/kg, po measured after 2 hrs; type: functional, organism-based; settings: dose 10-40 mg/kg
Rattus norvegicus [13] = experiment: Anti-hyperuricemia effect in PO-induced hyperuricemia Sprague-Dawley rat model assessed as decrease in serum uric acid level at 10 mg/kg, po measured for 1 to 6 hrs; type: functional, organism-based; settings: time 1-6 hrs
[14] = Effect on BUN level in PO-induced hyperuricemia Sprague-Dawley rat model at 10 to 40 mg/kg, po measure upto 8 hrs; type: toxicity, organism-based; settings: in vivo, dose 10-40 mg/kg
[15] = Effect on serum creatinine level in PO-induced hyperuricemia Sprague-Dawley rat model at 10 to 40 mg/kg, po measure upto 8 hrs; type: toxicity, organism-based; settings: in vivo, dose 10-40 mg/kg

Compound | IC50 [3] | other results
COc1ccc(C(=O)/C=C/c2ccc(O)cc2)cc1 |  | IC50 [1]: 4500 nM
O=C(O)c1ccc(O)c(/C=C/C(=O)c2ccc3c(c2)CCN3)c1 | 64 nM | inhibition (INH) [2]: Active; inhibition (INH) [4]: Active; Activity (AML12): Non-Toxic
O=C(O)c1ccc(/C=C/C(=O)c2ccc(O)cc2)cc1 |  | IC50 [5]: 300 nM
CS(=O)(=O)c1ccc(C(=O)/C=C/c2cc(C(=O)O)ccc2O)cc1 | 109 nM | 
Oc1ncnc2[nH]ncc12 [ALLOPURINOL] |  | Activity (Rattus norvegicus [6]): Active; Activity [7]: Toxic; Activity [8]: Non-Toxic
C[S+]([O-])c1ccc(C(=O)/C=C/c2cc(C(=O)O)ccc2O)cc1 (configuration not stated) | 311 nM | 
CCc1ccc(C(=O)/C=C/c2cc(C(=O)O)ccc2O)cc1 | 84 nM | viability at 24 h, 20 µM [9]: 82.1%; inhibition (INH) [2]: Active; viability at 24 h, up to 10 µM [10]: > 90%; inhibition (INH) [4]: Active
O=C(O)c1ccc(O)c(/C=C/C(=O)c2ccc3[nH]ccc3c2)c1 | 139 nM | 
O=C(O)c1ccc(O)c(/C=C/C(=O)c2cccnc2)c1 | 297 nM | 
O=C(O)c1ccc(O)c(/C=C/C(=O)c2ccsc2)c1 | 215 nM | 
CCOc1ccc(C(=O)/C=C/c2cc(C(=O)O)ccc2O)cc1 | 484 nM | 
O=C(O)c1ccc(O)c(/C=C/C(=O)c2cccc3ccccc23)c1 | 222 nM | 
O=C(O)c1ccc(O)c(/C=C/C(=O)c2cc[nH]c2)c1 | 301 nM | 
O=C(/C=C/c1ccc(O)cc1)c1ccc(O)c(O)c1 |  | IC50 [1]: 5600 nM
O=C(O)c1ccc(O)c(/C=C/C(=O)c2nccs2)c1 | 226 nM | 
CC(C)COc1ccc(C(=O)/C=C/c2cc(C(=O)O)ccc2O)cc1 | 306 nM | 
O=C(O)c1ccc(O)c(/C=C/C(=O)c2ccc3c(c2)OCCO3)c1 | 185 nM | 
CCCc1ccc(C(=O)/C=C/c2cc(C(=O)O)ccc2O)cc1 | 211 nM | 
CNc1ccc(C(=O)/C=C/c2cc(C(=O)O)ccc2O)cc1 | 102 nM | inhibition (INH) [2]: Active; Activity [11]: Non-Toxic; inhibition (INH) [4]: Active; Activity (Rattus norvegicus [12]): Active; Activity (Rattus norvegicus [13]): Active; Activity [14]: Non-Toxic; Activity (AML12): Non-Toxic; Activity [15]: Non-Toxic
Cc1ccc(C(=O)/C=C/c2cc(C(=O)O)ccc2O)cc1 | 176 nM | 

Compound | IC50 [3] | other results
CC(=O)c1ccc(C(=O)/C=C/c2cc(C(=O)O)ccc2O)cc1 | 248 nM | 
CSc1ccc(C(=O)/C=C/c2cc(C(=O)O)ccc2O)cc1 | 193 nM | 
C#CCOc1ccc(C(=O)/C=C/c2cc(C(=O)O)ccc2O)cc1 | 274 nM | 
CC(C)(C)c1ccc(C(=O)/C=C/c2cc(C(=O)O)ccc2O)cc1 | 555 nM | 
CC1(C)CCSc2ccc(C(=O)/C=C/c3cc(C(=O)O)ccc3O)cc21 | 368 nM | 
COc1ccc(C(=O)/C=C/c2ccc(C(=O)O)cc2)cc1 |  | IC50 [5]: 100 nM
O=C(O)c1ccc(O)c(/C=C/C(=O)c2ccc3ncccc3c2)c1 | 196 nM | 
O=C(O)c1ccc(O)c(/C=C/C(=O)c2ccc3c(c2)OCO3)c1 | 178 nM | 
O=C(O)c1ccc(O)c(/C=C/C(=O)c2ccccn2)c1 | 307 nM | 
COc1ccc(C(=O)/C=C/c2cc(C(=O)O)ccc2O)cc1 | 266 nM | 
O=C(O)c1ccc(O)c(/C=C/C(=O)c2ccc3c(c2)CCO3)c1 | 155 nM | 
CCCCOc1ccc(C(=O)/C=C/c2cc(C(=O)O)ccc2O)cc1 | 294 nM | 
O=C(O)c1ccc(O)c(/C=C/C(=O)c2ccc3c(c2)CCC3)c1 | 559 nM | 
CN(C)c1ccc(C(=O)/C=C/c2cc(C(=O)O)ccc2O)cc1 | 117 nM | 
CCCOc1ccc(C(=O)/C=C/c2cc(C(=O)O)ccc2O)cc1 | 542 nM | 
O=C(O)c1ccc(O)c(/C=C/C(=O)c2ccc3ccccc3c2)c1 | 213 nM | 
C#Cc1ccc(C(=O)/C=C/c2cc(C(=O)O)ccc2O)cc1 | 127 nM | 
C=CCOc1ccc(C(=O)/C=C/c2cc(C(=O)O)ccc2O)cc1 | 404 nM | 
O=C(O)c1ccc(O)c(/C=C/C(=O)c2ccncc2)c1 | 309 nM | 
O=C(O)c1ccc(O)c(/C=C/C(=O)c2ccccc2)c1 | 206 nM | 
